Data on one compound can be found in publication PMC5218480 (PLoS ONE, 2017).

The assay has as its system MV-4-11 cells. Nature of the assay: Gene expression microarray analysis (Affymetrix PrimeView) and GSEA. The format is cell-based, human. Also on record: RFU PODN (11730768_x_at) / Fold change /veh PODN (11730768_x_at) / RFU LINC00158 (11744669_a_at) / Fold change /veh LINC00158 (11744669_a_at) / RFU DUSP10 (11751237_a_at) / Fold change /veh DUSP10 (11751237_a_at) / RFU ID3 (11757404_x_at) / Fold change /veh ID3 (11757404_x_at) / RFU PLEKHG5 (11737974_s_at) / Fold change /veh PLEKHG5 (11737974_s_at) / RFU LRRC4B (11730491_at) / Fold change /veh LRRC4B (11730491_at) / RFU GIMAP4 (11747438_a_at) / Fold change /veh GIMAP4 (11747438_a_at) / RFU KRT8 (11758183_x_at) / Fold change /veh KRT8 (11758183_x_at) / RFU CNN1 (11734310_a_at) / Fold change /veh CNN1 (11734310_a_at) / RFU VPS37D (11726825_at) / Fold change /veh VPS37D (11726825_at) / RFU C10orf10 (11716522_x_at) / Fold change /veh C10orf10 (11716522_x_at) / RFU KIR2DL2 /// KIR2DL4 /// KIR2DL5A /// KIR2DL5B /// KIR2DS1 /// KIR2DS2 /// KIR2DS3 /// KIR2DS4 /// KIR3DL3 /// KIR3DL3 /// KIR3DS1 (11738374_at) / Fold change /veh KIR2DL2 /// KIR2DL4 /// KIR2DL5A /// KIR2DL5B /// KIR2DS1 /// KIR2DS2 /// KIR2DS3 /// KIR2DS4 /// KIR3DL3 /// KIR3DL3 /// KIR3DS1 (11738374_at) / RFU C1QL1 (11718748_at) / Fold change /veh C1QL1 (11718748_at) / RFU TMPRSS4 (11747572_a_at) / Fold change /veh TMPRSS4 (11747572_a_at) / RFU HAMP (11756126_x_at) / Fold change /veh HAMP (11756126_x_at) / RFU RNFT2 (11725882_a_at) / Fold change /veh RNFT2 (11725882_a_at) / RFU NR4A2 (11747474_a_at) / Fold change /veh NR4A2 (11747474_a_at) / RFU ABCC12 (11746883_a_at) / Fold change /veh ABCC12 (11746883_a_at) / RFU TMEM136 (11760407_x_at) / Fold change /veh TMEM136 (11760407_x_at) / RFU CLDN22 /// WWC2 (11732394_at) / Fold change /veh CLDN22 /// WWC2 (11732394_at) / RFU HLA-DPB1 (11760878_x_at) / Fold change /veh HLA-DPB1 (11760878_x_at) / RFU SPINT1 (11716480_a_at) / Fold change /veh SPINT1 (11716480_a_at) / RFU GAP43 (11754022_s_at) / Fold change /veh GAP43 (11754022_s_at) / RFU A4GNT (11735810_at) / Fold change /veh A4GNT (11735810_at) / RFU PRB3 (11715151_x_at) / Fold change /veh PRB3 (11715151_x_at) / RFU TUBB4B (11761932_at) / Fold change /veh TUBB4B (11761932_at) / RFU CAPN14 (11732068_a_at) / Fold change /veh CAPN14 (11732068_a_at) / RFU TMCC2 (11721928_a_at) / Fold change /veh TMCC2 (11721928_a_at) / RFU IRGQ (11745062_a_at) / Fold change /veh IRGQ (11745062_a_at) / RFU FAM174B (11720279_a_at) / Fold change /veh FAM174B (11720279_a_at) / RFU TMPRSS4 (11748680_a_at) / Fold change /veh TMPRSS4 (11748680_a_at) / RFU FAM212B (11763350_a_at) / Fold change /veh FAM212B (11763350_a_at) / RFU PLEKHG5 (11743358_a_at) / Fold change /veh PLEKHG5 (11743358_a_at) / RFU ZSCAN30 (11745921_a_at) / Fold change /veh ZSCAN30 (11745921_a_at) / RFU CMKLR1 (11741424_a_at) / Fold change /veh CMKLR1 (11741424_a_at) / RFU LOC101060620 /// MAPK8IP1 (11723275_at) / Fold change /veh LOC101060620 /// MAPK8IP1 (11723275_at) / RFU SPTSSB (11747773_x_at) / Fold change /veh SPTSSB (11747773_x_at) / RFU PRSS12 (11739890_at) / Fold change /veh PRSS12 (11739890_at) / RFU BIN1 (11741810_x_at) / Fold change /veh BIN1 (11741810_x_at) / RFU WNT11 (11732464_a_at) / Fold change /veh WNT11 (11732464_a_at) / RFU C10orf10 (11716521_a_at) / Fold change /veh C10orf10 (11716521_a_at) / RFU C5orf56 (11738089_at) / Fold change /veh C5orf56 (11738089_at) / RFU CYB561 (11721691_x_at) / Fold change /veh CYB561 (11721691_x_at) / RFU ANKRD19P (11752326_a_at) / Fold change /veh ANKRD19P (11752326_a_at) / RFU OR2T12 /// OR2T33 /// OR2T8 (11738714_s_at) / Fold change /veh OR2T12 /// OR2T33 /// OR2T8 (11738714_s_at) / RFU VCAN (11748164_a_at) / Fold change /veh VCAN (11748164_a_at) / RFU JSRP1 (11732532_at) / Fold change /veh JSRP1 (11732532_at) / RFU KRTAP10-11 (11738290_x_at) / Fold change /veh KRTAP10-11 (11738290_x_at) / RFU MYO3A (11730013_a_at) / Fold change /veh MYO3A (11730013_a_at) / RFU EBF3 (11725865_a_at) / Fold change /veh EBF3 (11725865_a_at) / RFU CAMK2N1 (11719241_x_at) / Fold change /veh CAMK2N1 (11719241_x_at) / RFU C5orf56 (11738088_a_at) / Fold change /veh C5orf56 (11738088_a_at) / RFU OLFML3 (11715873_a_at) / Fold change /veh OLFML3 (11715873_a_at) / RFU LOC100653217 /// NTM (11731650_a_at) / Fold change /veh LOC100653217 /// NTM (11731650_a_at) / RFU MAPK11 (11762145_a_at) / Fold change /veh MAPK11 (11762145_a_at) / RFU FIZ1 (11724087_x_at) / Fold change /veh FIZ1 (11724087_x_at) / RFU OASL (11726364_x_at) / Fold change /veh OASL (11726364_x_at) / RFU SOX15 (11748057_x_at) / Fold change /veh SOX15 (11748057_x_at) / RFU CD79A (11719716_a_at) / Fold change /veh CD79A (11719716_a_at) / RFU HIST1H1D (11736915_at) / Fold change /veh HIST1H1D (11736915_at) / RFU CASKIN2 (11723855_a_at) / Fold change /veh CASKIN2 (11723855_a_at) / RFU LOC730098 (11760151_x_at) / Fold change /veh LOC730098 (11760151_x_at) / RFU OR4N2 (11742367_at) / Fold change /veh OR4N2 (11742367_at) / RFU PRRT2 (11749266_a_at) / Fold change /veh PRRT2 (11749266_a_at) / RFU SNX32 (11753110_a_at) / Fold change /veh SNX32 (11753110_a_at) / RFU CDHR5 (11726645_a_at) / Fold change /veh CDHR5 (11726645_a_at) / RFU RCAN1 (11760418_a_at) / Fold change /veh RCAN1 (11760418_a_at) / RFU FAM167A (11723789_a_at) / Fold change /veh FAM167A (11723789_a_at) / RFU FAM26E (11764081_at) / Fold change /veh FAM26E (11764081_at) / RFU ISYNA1 (11749810_s_at) / Fold change /veh ISYNA1 (11749810_s_at) / RFU ACY1 (11761880_at) / Fold change /veh ACY1 (11761880_at) / RFU 11764098_at / Fold change /veh 11764098_at / RFU SAMD14 (11745864_x_at) / Fold change /veh SAMD14 (11745864_x_at) / RFU NPB (11741838_a_at) / Fold change /veh NPB (11741838_a_at) / RFU TMPRSS6 (11731388_a_at) / Fold change /veh TMPRSS6 (11731388_a_at) / RFU KRTAP10-2 (11738614_at) / Fold change /veh KRTAP10-2 (11738614_at) / RFU ARHGAP8 /// PRR5-ARHGAP8 (11727945_x_at) / Fold change /veh ARHGAP8 /// PRR5-ARHGAP8 (11727945_x_at) / RFU KRTAP5-7 /// NADSYN1 (11734609_at) / Fold change /veh KRTAP5-7 /// NADSYN1 (11734609_at) / RFU RASL12 (11751679_a_at) / Fold change /veh RASL12 (11751679_a_at) / RFU CDKN2B (11736163_a_at) / Fold change /veh CDKN2B (11736163_a_at) / RFU PRF1 (11729649_at) / Fold change /veh PRF1 (11729649_at) / RFU, ZNF638 /// ZNF638-IT1 / Fold change vs veh, ZNF638 /// ZNF638-IT1 / RFU, PANK3 / Fold change vs veh, PANK3 / RFU, SH3YL1 / Fold change vs veh, SH3YL1 / RFU, ZEB2 / Fold change vs veh, ZEB2 / RFU, NRIP1 / Fold change vs veh, NRIP1 / RFU, PTTG1IP / Fold change vs veh, PTTG1IP / RFU, CAPN2 / Fold change vs veh, CAPN2 / RFU, MED14 / Fold change vs veh, MED14 / RFU, SNORA58 / Fold change vs veh, SNORA58 / RFU, C1orf63 / Fold change vs veh, C1orf63 / RFU, LRRFIP1 / Fold change vs veh, LRRFIP1 / RFU, NDUFAF7 / Fold change vs veh, NDUFAF7 / RFU, SLC12A2 / Fold change vs veh, SLC12A2 / RFU, IBTK / Fold change vs veh, IBTK / RFU, ESF1 / Fold change vs veh, ESF1 / Fold change vs veh, TMEM50B / RFU, TAOK1 / Fold change vs veh, TAOK1 / RFU, ACBD3 / Fold change vs veh, ACBD3 / RFU, TMA16 / Fold change vs veh, TMA16 / RFU, RWDD3 / Fold change vs veh, RWDD3 / RFU, BCAT1 / Fold change vs veh, BCAT1 / RFU, EDEM3 / Fold change vs veh, EDEM3 / RFU, TMEM33 / Fold change vs veh, TMEM33 / RFU, WDR75 / Fold change vs veh, WDR75 / RFU, AHCTF1 / Fold change vs veh, AHCTF1 / RFU, TFRC / Fold change vs veh, TFRC / RFU, ZDHHC17 / Fold change vs veh, ZDHHC17 / RFU, NOM1 / Fold change vs veh, NOM1 / RFU, ARL8B / Fold change vs veh, ARL8B / RFU, ZBTB11 / Fold change vs veh, ZBTB11 / RFU, TAMM41 / Fold change vs veh, TAMM41 / RFU, KIAA1704 /// LOC100996395 / Fold change vs veh, KIAA1704 /// LOC100996395 / RFU, ING1 / Fold change vs veh, ING1 / RFU, TRMT61B / Fold change vs veh, TRMT61B / RFU, FUBP3 / Fold change vs veh, FUBP3 / RFU, TP53 / Fold change vs veh, TP53 / RFU, TNKS2 / Fold change vs veh, TNKS2 / RFU, ZFP14 / Fold change vs veh, ZFP14 / RFU, ACTR2 / Fold change vs veh, ACTR2 / RFU, PPP3R1 / Fold change vs veh, PPP3R1 / RFU, PIK3R1 / Fold change vs veh, PIK3R1 / RFU, HNRNPA1 / Fold change vs veh, HNRNPA1 / RFU, RNF170 / Fold change vs veh, RNF170 / RFU, ZNF28 / Fold change vs veh, ZNF28 / RFU, RNGTT / Fold change vs veh, RNGTT / RFU, OGT / Fold change vs veh, OGT / RFU, BRD1 / Fold change vs veh, BRD1 / RFU, MARS / Fold change vs veh, MARS / RFU, ZNF655 / Fold change vs veh, ZNF655 / RFU, FAHD1 / Fold change vs veh, FAHD1 / RFU, BDP1 / Fold change vs veh, BDP1 / RFU, LRRCC1 / Fold change vs veh, LRRCC1 / RFU, ARID1A / Fold change vs veh, ARID1A / RFU, ZNF146 / Fold change vs veh, ZNF146 / RFU, ZNF330 / Fold change vs veh, ZNF330 / RFU, GPN3 / Fold change vs veh, GPN3 / RFU, C9orf123 / Fold change vs veh, C9orf123 / RFU, N4BP2L2 / Fold change vs veh, N4BP2L2 / RFU, ARFIP1 / Fold change vs veh, ARFIP1 / RFU, FAM179B / Fold change vs veh, FAM179B / RFU, BCL10 / Fold change vs veh, BCL10 / RFU, UHRF1BP1L / Fold change vs veh, UHRF1BP1L / RFU, BET1 / Fold change vs veh, BET1 / RFU, CNOT2 / Fold change vs veh, CNOT2 / RFU, ZNF268 / Fold change vs veh, ZNF268 / Fold change vs veh, ZNF507 / RFU, DGCR2 / Fold change vs veh, DGCR2 / RFU, WDSUB1 / Fold change vs veh, WDSUB1 / Fold change vs veh, HSP90B1 /// MIR3652 / RFU, ADSS / Fold change vs veh, ADSS / RFU, GK / Fold change vs veh, GK / RFU, ZNF148 / Fold change vs veh, ZNF148 / RFU, TAF9 / Fold change vs veh, TAF9 / RFU, SLC1A5 / Fold change vs veh, SLC1A5 / RFU, SLMO2 / Fold change vs veh, SLMO2 / RFU, ABCC4 / Fold change vs veh, ABCC4 / RFU, LOC101060439 /// RAP1B / Fold change vs veh, LOC101060439 /// RAP1B / RFU, RFX7 / Fold change vs veh, RFX7 / RFU, GTPBP10 / Fold change vs veh, GTPBP10 / RFU, CNEP1R1 / Fold change vs veh, CNEP1R1 / RFU, BIVM-ERCC5 /// ERCC5 / Fold change vs veh, BIVM-ERCC5 /// ERCC5 / RFU, ILF3 / Fold change vs veh, ILF3 / RFU 11762660_at / Fold change /veh 11762660_at / RFU VCAN (11757783_s_at) / Fold change /veh VCAN (11757783_s_at) / RFU DDX43 (11728927_at) / Fold change /veh DDX43 (11728927_at) / RFU KRT8 (11758188_x_at) / Fold change /veh KRT8 (11758188_x_at) / RFU NKD1 (11759106_at) / Fold change /veh NKD1 (11759106_at) / RFU SRD5A1 (11742802_a_at) / Fold change /veh SRD5A1 (11742802_a_at) / RFU TPSAB1 /// TPSB2 (11721975_s_at) / Fold change /veh TPSAB1 /// TPSB2 (11721975_s_at) / RFU GSTM3 (11746129_a_at) / Fold change /veh GSTM3 (11746129_a_at) / RFU IL23R (11737362_x_at) / Fold change /veh IL23R (11737362_x_at) / RFU TMEM51 (11727254_a_at) / Fold change /veh TMEM51 (11727254_a_at) / RFU PIWIL2 (11732686_x_at) / Fold change /veh PIWIL2 (11732686_x_at) / RFU ORM1 (11744905_x_at) / Fold change /veh ORM1 (11744905_x_at) / RFU CCDC152 (11743942_at) / Fold change /veh CCDC152 (11743942_at) / RFU ECM1 (11717891_a_at) / Fold change /veh ECM1 (11717891_a_at) / RFU IL23R (11748794_a_at) / Fold change /veh IL23R (11748794_a_at) / RFU TNFAIP8L3 (11732012_x_at) / Fold change /veh TNFAIP8L3 (11732012_x_at) / RFU MBOAT4 (11741988_at) / Fold change /veh MBOAT4 (11741988_at) / RFU 11764193_at / Fold change /veh 11764193_at / RFU TMEM53 (11763286_at) / Fold change /veh TMEM53 (11763286_at) / RFU MAGEB2 (11727129_at) / Fold change /veh MAGEB2 (11727129_at) / RFU TMEM200A (11744735_a_at) / Fold change /veh TMEM200A (11744735_a_at) / RFU CCDC152 (11751479_a_at) / Fold change /veh CCDC152 (11751479_a_at) / RFU FAM211A (11726209_a_at) / Fold change /veh FAM211A (11726209_a_at) / RFU RGS16 (11746705_a_at) / Fold change /veh RGS16 (11746705_a_at) / RFU VCAN (11755009_s_at) / Fold change /veh VCAN (11755009_s_at) / RFU RHOB (11743442_s_at) / Fold change /veh RHOB (11743442_s_at) / RFU RGS16 (11720943_a_at) / Fold change /veh RGS16 (11720943_a_at) / RFU RGS16 (11720944_at) / Fold change /veh RGS16 (11720944_at) / RFU, VPS4B / Fold change vs veh, VPS4B / RFU, CREB1 / Fold change vs veh, CREB1 / RFU, DNAJC13 / Fold change vs veh, DNAJC13 / RFU, GNAQ / Fold change vs veh, GNAQ / RFU, CDK5R1 / Fold change vs veh, CDK5R1 / RFU, ZRANB3 / Fold change vs veh, ZRANB3 / RFU, CUL4A / Fold change vs veh, CUL4A / RFU, CCNY / Fold change vs veh, CCNY / RFU, UFL1 / Fold change vs veh, UFL1 / RFU, COG3 / Fold change vs veh, COG3 / RFU, DIAPH2 / Fold change vs veh, DIAPH2 / RFU, SKA2 / Fold change vs veh, SKA2 / RFU, AFF3 / Fold change vs veh, AFF3 / RFU, LMF1 / Fold change vs veh, LMF1 / RFU, IPO11 / Fold change vs veh, IPO11 / RFU, DFFB / Fold change vs veh, DFFB / RFU, FOXP1 / Fold change vs veh, FOXP1 / RFU, CARD8 / Fold change vs veh, CARD8 / RFU, STRN3 / Fold change vs veh, STRN3 / RFU, ADK / Fold change vs veh, ADK / RFU, RASSF2 / Fold change vs veh, RASSF2 / RFU, WIPF1 / Fold change vs veh, WIPF1 / RFU, LARP1B / Fold change vs veh, LARP1B / RFU, RASA1 / Fold change vs veh, RASA1 / RFU, RB1 / Fold change vs veh, RB1 / RFU, PPFIA1 / Fold change vs veh, PPFIA1 / RFU, MAT2A / Fold change vs veh, MAT2A / RFU, CCT5 / Fold change vs veh, CCT5 / RFU, WDR92 / Fold change vs veh, WDR92 / RFU, CUX1 / Fold change vs veh, CUX1 / RFU, TTC7A / Fold change vs veh, TTC7A / RFU, TMEM135 / Fold change vs veh, TMEM135 / RFU, DEPTOR / Fold change vs veh, DEPTOR / RFU, CPM / Fold change vs veh, CPM / RFU, DNAJB6 / Fold change vs veh, DNAJB6 / RFU, CACNA2D3 / Fold change vs veh, CACNA2D3 / RFU, DTX4 / Fold change vs veh, DTX4 / RFU, TFCP2 / Fold change vs veh, TFCP2 / RFU, GMCL1 /// GMCL1P1 / Fold change vs veh, GMCL1 /// GMCL1P1 / RFU, AEBP2 / Fold change vs veh, AEBP2 / RFU, SNHG1 /// SNORD22 /// SNORD25 /// SNORD26 /// SNORD27 /// SNORD28 /// SNORD29 /// SNORD31 / Fold change vs veh, SNHG1 /// SNORD22 /// SNORD25 /// SNORD26 /// SNORD27 /// SNORD28 /// SNORD29 /// SNORD31 / Fold change (Aza/veh), C12orf56 (ProbeSet 11735607_a_at) / Fold change (ACY-1035/veh), C12orf56 (ProbeSet 11735607_a_at) / Fold change (Aza/veh), FGFR1OP (ProbeSet 11751329_s_at) / Fold change (ACY-1035/veh), FGFR1OP (ProbeSet 11751329_s_at) / Fold change (Aza/veh), VPS36 (ProbeSet 11739960_a_at) / Fold change (ACY-1035/veh), VPS36 (ProbeSet 11739960_a_at) / RFU SYPL1 (11715823_x_at) / Fold change /veh SYPL1 (11715823_x_at) / RFU IGFBP7 (11715501_s_at) / Fold change /veh IGFBP7 (11715501_s_at) / RFU REEP3 (11722064_at) / Fold change /veh REEP3 (11722064_at) / RFU IGLL1 (11728026_x_at) / Fold change /veh IGLL1 (11728026_x_at): dose or concentration left out as unconfirmed. As to conditions: ProbeSet 11716331_a_at; LIST D.

Consider `Nc1ccc(-c2cccs2)cc1NC(=O)c1ccc2c(c1)cc(C1CC1)n2CCN1CCOCC1` [ACY-1035], for which the “Fold change vs veh, DNAJB6” value was determined as 0.86.
